Measurements: patent US4746659A, “Diastereomers of 10-alkyl-10-deazaminopterins and process for preparing the same” (priority 1985, dated 1988)
Values after ≈ are worked out from the molar mass of the structure shown. “Also recorded” adds a separate entry of the source. Read-outs that look alike come from different tables or passages of the source.

Columns and labels:
Streptococcus faecium [1] = settings: cited from earlier work
Streptococcus faecium [2] = test: Growth inhibition of Streptococcus faecium (ATCC 8043); format: cell-based; settings: for Minimum Inhibitory Concentration50 for growth inhibition, S. faecium: S. faecium ATCC 8043; for Minimum Inhibitory Concentration50 for growth inhibition, S. faecium / IC50: folate concentration = 1 ng/mL; for potency against S. faecium, comparison: comparison in words; for IC50: Enterococcus faecium, ATCC8043, read-out: Minimum Inhibitory Concentration50 for growth inhibition, S. faecium, S. faecium ATCC 8043
[3] = molecular target: T1, dihydrofolate reductase derived from L1210 (Mus musculus, UniProt P00375); test: Inhibition of dihydrofolate reductase derived from L1210 cells; format: biochemical; settings: comparison in words
T1 construct: dihydrofolate reductase derived from L1210; endogenous in cells; host or cells: L1210 cells
T1 sequence (P00375 1-187): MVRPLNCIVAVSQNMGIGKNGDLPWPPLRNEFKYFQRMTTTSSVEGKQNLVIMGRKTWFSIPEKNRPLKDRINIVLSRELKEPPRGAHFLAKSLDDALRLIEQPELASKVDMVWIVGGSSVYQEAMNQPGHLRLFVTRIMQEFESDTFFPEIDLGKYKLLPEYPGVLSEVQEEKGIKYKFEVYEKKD

L1210 cells = test: Growth inhibition of L1210 cells; format: cell-based; settings: for IC50: average of 3-6 runs, standard error less than 15%, read-out: growth inhibn (minimum inhibitory concentration50); for inhibition of growth for L1210 cells, comparison between isomers: comparison in words
[4] = molecular target: T2, transport protein of L1210 (Mus musculus, UniProt P41438); test: Transport (influx, efflux) in L1210 cells; format: cell-based; settings: average of 3-6 runs, standard error less than 15%
T2 sequence (P41438 1-512): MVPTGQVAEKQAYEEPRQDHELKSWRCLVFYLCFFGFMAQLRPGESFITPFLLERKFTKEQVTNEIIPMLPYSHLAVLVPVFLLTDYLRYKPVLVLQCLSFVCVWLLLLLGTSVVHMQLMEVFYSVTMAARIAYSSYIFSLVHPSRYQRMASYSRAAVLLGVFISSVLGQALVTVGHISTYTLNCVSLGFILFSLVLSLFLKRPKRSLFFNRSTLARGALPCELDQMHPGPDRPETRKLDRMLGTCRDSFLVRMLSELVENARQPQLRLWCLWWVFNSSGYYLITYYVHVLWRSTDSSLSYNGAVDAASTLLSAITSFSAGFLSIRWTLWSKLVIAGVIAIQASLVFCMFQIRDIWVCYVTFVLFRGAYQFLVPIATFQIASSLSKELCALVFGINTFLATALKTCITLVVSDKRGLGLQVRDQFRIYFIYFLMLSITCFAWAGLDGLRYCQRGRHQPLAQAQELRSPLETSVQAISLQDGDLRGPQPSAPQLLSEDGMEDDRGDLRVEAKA

[5] = system: leukemia, as well as other malignancies, including ascitic tumors; settings: warm-blooded lower animals; cited from earlier work
L1210 leukemia = test: Antitumor activity against L1210 leukemia in mice; format: in vivo, BD (2) F1 female mice; settings: sc every 2 days times 5; for Mean Survival Time: untreated control 6.6 days
[6] = Various in vitro assays (general statement); settings: Tables I, II and III
[7] = system: experimental murine tumor models; settings: compared with methotrexate or 10-deazaminopterin; cited from earlier work
[8] = system: human mammary, lung and colon tumor xenografts; settings: lung and colon tumor xenografts in nude mice; cited from earlier work
[9] = molecular target: dihydrofolate reductase derived from L. casei (Lacticaseibacillus casei, UniProt P00381); test: DHFR inhibition, enzyme derived from L. casei; format: biochemical; settings: relative to l,L-isomer
Chain of dihydrofolate reductase derived from L. casei (P00381 whole entry): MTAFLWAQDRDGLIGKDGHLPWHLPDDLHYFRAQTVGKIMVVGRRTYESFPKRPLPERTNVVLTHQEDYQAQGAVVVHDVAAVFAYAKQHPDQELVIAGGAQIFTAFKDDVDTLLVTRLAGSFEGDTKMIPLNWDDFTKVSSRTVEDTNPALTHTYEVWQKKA

[10] = Mus musculus, L1210, L1210 cells
[11] = 9 mg/kg, listed as racemic mixture
[12] = 12 mg/kg, listed as racemic mixture
[13] = 18 mg/kg, listed as racemic mixture
[14] = 24 mg/kg, listed as racemic mixture

In the case of `Nc1nc2c(c(=O)[nH]1)NC(CCc1ccc(C(=O)O)cc1)CN2` (stereo not drawn), the “growth-inhibitory activity against Streptococcus faecium” value (Streptococcus faecium [1]) is listed as “Activity was greatly enhanced by reduction to the tetrahydro compound”.
With `CCC(CC1CNc2nc(N)nc(N)c2N1)c1ccc(C(=O)N[C@@H](CCC(=O)O)C(=O)O)cc1` (mixture of isomers) [5,6,7,8-tetrahydro racemic mixture] the “Minimum Inhibitory Concentration50 for growth inhibition, S. faecium” value (Streptococcus faecium [2]) was 2.6 ng/mL.
With `CC(Cc1cnc2nc(N)nc(N)c2n1)c1ccc(C(=O)N[C@@H](CCC(=O)O)C(=O)O)cc1` (single isomer, unassigned) [d, L-10-methyl, 10-methyl-10-deazaminopterin] the “inhibition of dihydrofolate reductase derived from L1210, comparison between isomers” value [3] was “not significantly different from one another or MTX”, the IC50 (L1210 cells; L1210 cells) was 0.68 nM and the “inhibition of growth for L1210 cells, comparison between isomers” value (“inhibition of growth for L1210 cells” below) (L1210 cells) was “not a significant difference”. For the same compound, the transport efflux k [4] was 0.258 min⁻¹.
For `CCC(Cc1cnc2nc(N)nc(N)c2n1)c1ccc(C(=O)N[C@@H](CCC(=O)O)C(=O)O)cc1` (single isomer, unassigned) [l, L-10-ethyl, l,L-10-ethyl-10-deazaminopterin], the IC50 (L1210 cells; [10]) was 1.52 nM, the “inhibition of growth for L1210 cells” value (L1210 cells) was “only one-third as potent as the d,L isomer” and the transport efflux k [4] was 0.249 min⁻¹. The “potency against S. faecium, comparison” value (Streptococcus faecium [2]) was “slightly more potent than the d,L-isomer”.
With `CC(Cc1cnc2nc(N)nc(N)c2n1)c1ccc(C(=O)N[C@@H](CCC(=O)O)C(=O)O)cc1` (single isomer, unassigned) [l, L-10-methyl, 10-methyl-10-deazaminopterin] the “inhibition of dihydrofolate reductase derived from L1210, comparison between isomers” value [3] was “not significantly different from one another or MTX”, the IC50 (L1210 cells; [10]) was 1.18 nM and the “inhibition of growth for L1210 cells” value (L1210 cells) was “not a significant difference”. The transport efflux k [4] was 0.267 min⁻¹.
With `CCC(CC1CNc2nc(N)nc(N)c2N1)c1ccc(C(=O)N[C@@H](CCC(=O)O)C(=O)O)cc1` (stereo partly drawn) [5,6,7,8-tetrahydro d, L] the “Minimum Inhibitory Concentration50 for growth inhibition, S. faecium” value (Streptococcus faecium [2]) was 2.5 ng/mL and the “potency against S. faecium, comparison” value (Streptococcus faecium [2]) was “slightly more potent than the l,L isomer”.
For `CCC(CC1CNc2nc(N)nc(N)c2N1)c1ccc(C(=O)N[C@@H](CCC(=O)O)C(=O)O)cc1` (stereo partly drawn) [5,6,7,8-tetrahydro l, L], the IC50 (Streptococcus faecium [2]) was 3.1 ng/mL (≈ 6.57 nM).
In the case of `CCC(CC1=Nc2c(N)nc(N)nc2NC1)c1ccc(C(=O)N[C@@H](CCC(=O)O)C(=O)O)cc1` (stereo partly drawn) [7,8-dihydro l, L], the IC50 (Streptococcus faecium [2]) is reported as 1.1 ng/mL (≈ 2.34 nM).
For `Nc1nc(N)c2nc(CCc3ccc(C(=O)NC(CCC(=O)O)C(=O)O)cc3)cnc2n1` (stereo not drawn) [10-deazaminopterin], the “amelioration of leukemia and other malignancies, including ascitic tumors” value [5] is listed as “can be ameliorated”.
For `Nc1nc2ncc(CCc3ccc(C(=O)O)cc3)nc2c(=O)[nH]1` [10-deazapteroic acid], the “growth-inhibitory activity against Streptococcus faecium” value (Streptococcus faecium [1]) is given as “potent growth-inhibitory activity”.
In the case of `CCC(Cc1cnc2nc(N)nc(N)c2n1)c1ccc(C(=O)N[C@@H](CCC(=O)O)C(=O)O)cc1` (stereo partly drawn) [10-ethyl-10-deazaminopterin], the 30-day survivors (L1210 leukemia; [11]) is reported as 0/10, the “Increased Life Span” value (L1210 leukemia; [11]) is reported as “+135%” and the Toxic deaths (L1210 leukemia; [11]) is reported as 0/10. For the same compound, the “Mean Survival Time” value (L1210 leukemia; [11]) was 15.5 ± 0.6 days, the 30-day survivors (L1210 leukemia; [12]) was 0/10 and the “Increased Life Span” value (L1210 leukemia; [12]) was “+153%”. The Toxic deaths (L1210 leukemia; [12]) was 0/10, the “Mean Survival Time” value (L1210 leukemia; [12]) was 16.7 ± 0.7 days and the 30-day survivors (L1210 leukemia; [13]) was 0/10. For the same compound, the “Increased Life Span” value (L1210 leukemia; [13]) was “+193%”, the Toxic deaths (L1210 leukemia; [13]) was 0/10 and the “Mean Survival Time” value (L1210 leukemia; [13]) was 19.3 ± 0.8 days. For the same compound, the 30-day survivors (L1210 leukemia; [14]) was 2/10, the “Increased Life Span” value (L1210 leukemia; [14]) was “> +207%” and the Toxic deaths (L1210 leukemia; [14]) was 2/10. The “Mean Survival Time” value (L1210 leukemia; [14]) was 20.3 ± 1.9 days, the 30-day survivors (L1210 leukemia; 32 mg/kg) was 0/10 and the “Increased Life Span” value (L1210 leukemia; 32 mg/kg) was “+67%”. The Toxic deaths (L1210 leukemia; 32 mg/kg) was 10/10, the “Mean Survival Time” value (L1210 leukemia; 32 mg/kg) was 16.0 ± 1.1 days and the “inhibitory activity in the various in vitro assays, comparison” value [6] was “intermediate between the values for the resolved d,L and l,L diasteromers”. The “effectiveness in experimental murine tumor models” value [7] was “considerably more effective than methotrexate or 10-deazaminopterin” and the “regression of human tumor xenografts” value [8] was “frank regressions”.
For `CCC(Cc1cnc2nc(N)nc(N)c2n1)c1ccc(C(=O)N[C@@H](CCC(=O)O)C(=O)O)cc1` (stereo partly drawn) [d, L-10-ethyl, d,L-10-ethyl-10-deazaminopterin], the “inhibition of dihydrofolate reductase derived from L1210, comparison between isomers” value ([3]; listed as d,L isomer of 10-ethyl-10-deazaminopterin) was “significantly more effective; also recorded: three-fold difference between l,L and d,L isomers”, the IC50 (L1210 cells; [10]) was 0.43 nM and the “inhibition of growth for L1210 cells” value (L1210 cells) was “significantly more effective”. The transport efflux k [4] was 0.253 min⁻¹, the “potency against the L. casei enzyme, d,L-isomer over l,L-isomer” value [9] was “approximately three-fold greater potency” and the 30-day survivors (L1210 leukemia; 9 mg/kg, listed as d, L) was 0/6. The “Increased Life Span” value (L1210 leukemia; 9 mg/kg, listed as d, L) was “+177%”, the Toxic deaths (L1210 leukemia; 9 mg/kg, listed as d, L) was 0/6 and the “Mean Survival Time” value (L1210 leukemia; 9 mg/kg, listed as d, L) was 18.3 ± 1.7 days. For the same compound, the 30-day survivors (L1210 leukemia; 12 mg/kg, listed as d, L) was 0/9, the “Increased Life Span” value (L1210 leukemia; 12 mg/kg, listed as d, L) was “+199%” and the Toxic deaths (L1210 leukemia; 12 mg/kg, listed as d, L) was 3/9. The “Mean Survival Time” value (L1210 leukemia; 12 mg/kg, listed as d, L) was 19.8 ± 2.3 days, the 30-day survivors (L1210 leukemia; 18 mg/kg, listed as d, L) was 1/9 and the “Increased Life Span” value (L1210 leukemia; 18 mg/kg, listed as d, L) was “> +165%”. For the same compound, the Toxic deaths (L1210 leukemia; 18 mg/kg, listed as d, L) was 5/9, the “Mean Survival Time” value (L1210 leukemia; 18 mg/kg, listed as d, L) was 17.5 ± 1.5 days and the 30-day survivors (L1210 leukemia; 24 mg/kg, listed as d, L) was 0/3. For the same compound, the “Increased Life Span” value (L1210 leukemia; 24 mg/kg, listed as d, L) was “+55%”, the Toxic deaths (L1210 leukemia; 24 mg/kg, listed as d, L) was 3/3 and the “Mean Survival Time” value (L1210 leukemia; 24 mg/kg, listed as d, L) was 10.0 ± 0 days.
With `CN(Cc1cnc2nc(N)nc(N)c2n1)c1ccc(C(=O)N[C@@H](CCC(=O)O)C(=O)O)cc1` [methotrexate, reference compound] the IC50 (L1210 cells; L1210 cells) was 2.48 nM, the transport efflux k [4] was 0.213 min⁻¹ and the 30-day survivors (L1210 leukemia; 9 mg/kg) was 0/10. The “Increased Life Span” value (L1210 leukemia; 9 mg/kg) was “+137%”, the Toxic deaths (L1210 leukemia; 9 mg/kg) was 0/10 and the “Mean Survival Time” value (L1210 leukemia; 9 mg/kg) was 15.7 ± 0.4 days. For the same compound, the 30-day survivors (L1210 leukemia; 12 mg/kg) was 0/10, the Toxic deaths (L1210 leukemia; 12 mg/kg) was 1/10 and the “Mean Survival Time” value (L1210 leukemia; 12 mg/kg) was 16.3 ± 0.7 days. The 30-day survivors (L1210 leukemia; 18 mg/kg) was 0/10, the “Increased Life Span” value (L1210 leukemia; 18 mg/kg) was “+119%” and the Toxic deaths (L1210 leukemia; 18 mg/kg) was 6/10. For the same compound, the “Mean Survival Time” value (L1210 leukemia; 18 mg/kg) was 14.5 ± 1.6 days, the 30-day survivors (L1210 leukemia; 24 mg/kg) was 0/10 and the “Increased Life Span” value (L1210 leukemia; 24 mg/kg) was “+46%”. The Toxic deaths (L1210 leukemia; 24 mg/kg) was 10/10 and the “Mean Survival Time” value (L1210 leukemia; 24 mg/kg) was 9.6 ± 1.1 days.
